From ChEMBL document CHEMBL4819039, “Taxonomy Driven Discovery of Polyketides from Aspergillus californicus” (2021) come the findings set out here.

Values after ≈ are worked out from the molar mass of the structure shown. Active and inactive are the calls of the source. No cut-off for these calls is given here. Some results are limits rather than exact numbers.

One may read the MIC as the lowest concentration found to suppress growth.

For one experiment, the system named is HepG2. As to the kind of experiment: Cytotoxicity against human HepG2 cells after 72 hrs by MTT assay. It is filed as functional, cell-based. In general terms: Formazan colour is commonly taken as a measure of viable cells.
In a further experiment the test system is A2058. As to the kind of experiment: Cytotoxicity against human A2058 cells after 72 hrs by MTT assay. It is filed as functional, cell-based.
For experiment [1], the system named is Staphylococcus aureus. As to the kind of experiment: Antibacterial activity against methicillin-resistance Staphylococcus aureus MB5393 assessed as inhibition of bacterial growth. It is filed as functional.
The subject of the next experiment is HL-60. As to the kind of experiment: Cytotoxicity against human HL-60 cells after 72 hrs by CCK-8 assay. It is filed as functional, cell-based.
Experiment [2] deals with Staphylococcus aureus. As to the kind of experiment: Antibacterial activity against methicillin-sensitive Staphylococcus aureus ATCC 29213 assessed as inhibition of bacterial growth. It is filed as functional.
A further experiment relates to MIA PaCa-2. The experiment in a line: Cytotoxicity against human MIA PaCa-2 cells after 72 hrs by MTT assay. In kind it is functional, cell-based.
The next experiment deals with Escherichia coli. The experiment in a line: Antibacterial activity against Escherichia coli ATCC 25922 assessed as inhibition of bacterial growth. It is filed as functional.
The test system of the next experiment is Klebsiella pneumoniae. As to the kind of experiment: Antibacterial activity against Klebsiella pneumoniae ATCC 700603 assessed as inhibition of bacterial growth. In kind it is functional.
In the next experiment the test system is A549. As to the kind of experiment: Cytotoxicity against human A549 cells after 72 hrs by MTT assay. It is filed as functional, cell-based.
The subject of another experiment is MCF7. The experiment in a line: Cytotoxicity against human MCF7 cells after 72 hrs by MTT assay. In kind it is functional, cell-based.

`CCCCCC(=O)[C@@]1(O)C=Cc2c(CC=C(C)C)ccc(O)c2[C@@H]1O`: the outcome in the experiment with HepG2, in the experiment on A2058, with HL-60, in the experiment with MIA PaCa-2, with A549 and with MCF7 was inactive. Also, the MIC in the experiment with Staphylococcus aureus [1], in the experiment with Staphylococcus aureus [2], with Escherichia coli and in the experiment with Klebsiella pneumoniae was over 64 µg/mL each time.
As for `CCCCCC(=O)[C@]1(O)C=Cc2c(CC=C(C)C)ccc(O)c2[C@H]1O`, the result in the experiment with HepG2, in the experiment on A2058, in the experiment with HL-60, with MIA PaCa-2, in the experiment on A549 and in the experiment on MCF7 was inactive. The MIC in the experiment on Staphylococcus aureus [1], in the experiment with Staphylococcus aureus [2], in the experiment with Escherichia coli and with Klebsiella pneumoniae was over 64 µg/mL each time.
Consider `CCCCC/C=C/C=C/c1cccc(O)c1CO`, for which the result with HepG2, with A2058, in the experiment with HL-60, with MIA PaCa-2, in the experiment on Escherichia coli and in the experiment with Klebsiella pneumoniae was inactive. The result in the experiment on A549 and with MCF7 was inactive. The MIC in the experiment with Staphylococcus aureus [1] and in the experiment on Staphylococcus aureus [2] was 48 µg/mL (≈ 195 µM) each time.
With `CCCCC[C@H](O)C(=O)C[C@H]1OC(=O)c2c(O)ccc(CC=C(C)C)c21`, the result with HepG2, in the experiment with A2058, in the experiment on HL-60, in the experiment on MIA PaCa-2, with A549 and with MCF7 was inactive. In addition, the MIC in the experiment with Staphylococcus aureus [1], in the experiment on Staphylococcus aureus [2], with Escherichia coli and with Klebsiella pneumoniae was over 64 µg/mL each time.
As for `CCCCC[C@H](O)[C@@H](O)C[C@@H]1OCc2c(O)ccc(CC=C(C)C)c21`, the result in the experiment on HepG2, in the experiment on A2058, in the experiment on HL-60, in the experiment on MIA PaCa-2, in the experiment with A549 and in the experiment with MCF7 was inactive. Further, the MIC in the experiment on Staphylococcus aureus [1], in the experiment on Staphylococcus aureus [2], in the experiment with Escherichia coli and with Klebsiella pneumoniae was over 64 µg/mL in each case.
Take `CCCCC[C@H](O)C(=O)C[C@@H]1OC(=O)c2c(O)ccc(CC=C(C)C)c21`: the outcome in the experiment with HepG2, with A2058, in the experiment with HL-60, in the experiment on MIA PaCa-2, in the experiment on A549 and in the experiment with MCF7 was inactive. The MIC with Staphylococcus aureus [1], in the experiment with Staphylococcus aureus [2], with Escherichia coli and in the experiment with Klebsiella pneumoniae was over 64 µg/mL throughout.
For `CCCCC[C@H](O)[C@@H](O)C[C@H]1OC(=O)c2c(O)ccc(CC=C(C)C)c21`, the result in the experiment on HepG2, in the experiment on A2058, with HL-60, in the experiment with MIA PaCa-2, with A549 and with MCF7 was inactive. The MIC in the experiment with Staphylococcus aureus [1], in the experiment with Staphylococcus aureus [2], in the experiment with Escherichia coli and in the experiment with Klebsiella pneumoniae was over 64 µg/mL each time.
